Measurements taken from patent US20240173317A1, “METHODS FOR TREATING PROGRESSIVE FAMILIAL INTRAHEPATIC CHOLESTASIS” (MIRUM PHARMACEUTICALS, INC., priority 2022, published 2024).

Legend:
Assay type in all cases: in vivo, human
subjects with PFIC = test: ItchRO(Obs) pruritus severity, MARCH-PFIC Phase 3 study; settings: for percentage of pruritus response (ItchRO(Obs) responders): Week 15 to Week 26
Procedure: The primary analysis was conducted in the intent-to-treat (ITT) population of subjects with documented biallelic mutations in ABCB11 (PFIC 2), based on standard-of-care genotyping (primary cohort criteria). Subjects with a predicted complete absence of bile salt excretion pump (BSEP) function based on the type of ABCB11 mutation (PFIC 2), as determined by a standard-of-care genotype, were excluded from the primary cohort and could enroll only in the supplemental cohort. Subjects with other PFIC subtypes (e.g., PFIC 1/3/4/5/6, or new PFIC mutation variants) or postsurgical subjects (e.g., after internal or external biliary diversion surgery or subjects with reversal of biliary diversion surgery) were enrolled in a separate supplemental cohort and evaluated as part of secondary and exploratory analyses.
Subjects in the primary cohort were randomized in a 1:1 ratio to receive maralixibat or placebo. Subjects in the supplemental cohort were randomized in a 1:1 ratio to receive maralixibat or placebo within the following subcohorts: a) PFIC 1; b) PFIC 3; c) all other supplemental cohort subjects. All subjects received study treatment in addition to standard-of-care therapy, including antipruritic concomitant treatment.
For subjects assigned to maralixibat, the Dose Escalation period consisted of the following weekly steps: Dose level 1, 150 μg/kg maralixibat BID for 1 week; Dose level 2, 300 μg/kg maralixibat BID for 1 week; Dose level 3, 450 μg/kg maralixibat BID for 1 week; Dose level 4, 600 μg/kg maralixibat BID for the remaining duration of the study.
Efficacy. Severity of pruritus was assessed using the Itch caregiver/patient reported outcome measure (ItchRO™) administered as a twice daily electronic diary. Caregivers for all subjects completed the Observer instrument: ItchRO(Obs). The ItchRO(Obs) was completed by the same caregiver for consistency, whenever possible. Only subjects ≥9 years of age at screening completed the patient instrument: ItchRO(Pt). […] Pruritus was assessed and recorded twice daily, via ItchRO, beginning with the day after the screening visit and every day throughout the duration of the study. The severity of pruritus was measured by the completion of the first question in the ItchRO(Obs) (how severe were your child's itch-related symptoms) or ItchRO(Pt) (how itchy did you feel). The frequency of pruritus was measured by completion of the third question in the ItchRO(Obs) (how much of the time was your child rubbing or scratching) or ItchRO(Pt) (how much of last night/today did feeling itchy make you rub or scratch). Caregivers and subjects rated the severity and frequency of pruritus using 5 choices to describe their itching condition. ItchRO(Pt) and ItchRO(Obs) have been previously described in Kamath, et al., “Development of a Novel Tool to Assess the Impact of Itching in Pediatric Cholestasis,” Patient, 11:69-82 (2018), which is hereby incorporated by reference in its entirety for all purposes.
For this study, the primary estimand is the improvement in pruritus measured as change from baseline in the average morning ItchRO(Obs) severity score in the maralixibat treatment group relative to the placebo group. The primary analysis on the primary efficacy endpoint was conducted in 1) participants with PFIC 2 who fulfill criteria for the primary cohort in the ITT population (non-truncated primary “B SEP cohort” or “Primary cohort” with N=31), 2) all PFIC participants (excluding the participants with prior history of surgery, heterozygous participants and unknown types, “All PFIC cohort” or “PFIC cohort” with N=64), and 3) all study participants cohort, including the participants with prior history of surgery, heterozygous participants and unknown types. A restricted maximum likelihood (REML)-based mixed-effects model for repeated measures […] was used as the primary analysis method. […]

[1] = test system: patients with a truncated BSEP (t-BSEP) deficiency; test: sBA in individual t-BSEP patients (week 26 and week 58 of treatment)
patients with PFIC = test: TEAEs, MARCH-ON long-term extension
Procedure: Eighty-five patients from MARCH trial enrolled in MARCH-ON (Table 10, FIG. 29A). Forty-seven patients had received Maralixibat (MRX-MRX) and 38 had received placebo (PBO-MRX) during MARCH trial.
Methods: Long-term maintenance of response was assessed for patients who were originally randomized to receive MRX in MARCH and continued with treatment in MARCH-ON (MRX-MRX group; n=33). MRX response was assessed for patients who received PBO in the MARCH study and switched to open-label MRX in MARCH-ON (PBO-MRX group; n=24). Assessments included: pruritus measured by 0-4 scale of ItchRO[Obs], sBA, bilirubin, and growth z-scores, as well as incidence of treatment-emergent adverse events(TEAEs). Baseline (BL) was defined as the start of MRX for each group.

[2] = All PFIC cohort, Weeks 15-26, FIG. 6B
[3] = BSEP deficiency cohort, FIG. 7A
[4] = BSEP deficiency cohort, FIG. 7B
[5] = BSEP deficiency cohort, FIG. 17A
[6] = BSEP deficiency cohort, Weeks 15-26, FIG. 6A

CCCCC1(CCCC)CS(=O)(=O)c2ccc(N(C)C)cc2[C@@H](c2ccc(OCc3ccc(C[N+]45CCN(CC4)CC5)cc3)cc2)[C@H]1O [maralixibat, 1-(4-((4-((4R,5R)-3,3-dibutyl-7-(dimethylamino)-4-hydroxy-1,1-dioxido-2,3,4,5-tetrahydrobenzo[b]thiepin-5-yl)phenoxy)methyl)benzyl)-1,4-diazabicyclo[2.2.2]octan-1-ium] was tested, and the “difference from the placebo group, evening ItchRO[Obs] score” value (subjects with PFIC; All PFIC cohort, FIG. 8A) was 1.157 point, the “reduction from baseline in pruritus evening ItchRO[Obs] score” value (subjects with PFIC; All PFIC cohort, FIG. 8A) was 1.8 points and the “difference from the placebo group, maximum daily ItchRO[Obs] score” value (subjects with PFIC; All PFIC cohort, FIG. 8B) was 1.198 point. The “reduction from baseline in maximum pruritus daily ItchRO[Obs] score” value (subjects with PFIC; All PFIC cohort, FIG. 8B) was 1.9 points, the “percentage of pruritus response (ItchRO(Obs) responders)” value (subjects with PFIC; All PFIC cohort, FIG. 14A) was 63.6% and the “difference from the placebo group, morning ItchRO[Obs] score” value (“difference … morning ItchRO[Obs] score” below) (subjects with PFIC; [2]) was 1.20 point. The “reduction from baseline in pruritus morning ItchRO[Obs] score” value (subjects with PFIC; [2]) was 1.8 points, the “median proportion of reported days with an ItchRO(Obs) score of 0-1” value (subjects with PFIC; All-PFIC (MRX n = 33), Weeks 15-26) was 95% and the “difference from the placebo group, evening ItchRO[Obs] score” value (subjects with PFIC; [3]) was 1.111 point. The “reduction from baseline in pruritus evening ItchRO[Obs] score” value (subjects with PFIC; [3]) was 1.7 points, the “difference from the placebo group, maximum daily ItchRO[Obs] score” value (subjects with PFIC; [4]) was 1.130 point and the “reduction from baseline in maximum pruritus daily ItchRO[Obs] score” value (subjects with PFIC; [4]) was 1.8 points. The “difference vs placebo in proportion of pruritus responders (assessments ≤1)” value (subjects with PFIC; BSEP deficiency cohort, FIG. 16A) was 0.344, the “difference vs placebo in proportion of pruritus responders (assessments ≤1 or decrease ≥1)” value (subjects with PFIC; [5]) was 0.398 and the “proportion of pruritus responders: proportion of assessments ≤1 or decrease ≥1” value (subjects with PFIC; [5]) was “over 0.7”. The “percentage of pruritus response (ItchRO(Obs) responders)” value (subjects with PFIC; BSEP deficiency cohort, FIG. 13A) was 57.1%, the “difference … morning ItchRO[Obs] score” value (subjects with PFIC; [6]) was 1.089 point and the “reduction from baseline in pruritus morning ItchRO[Obs] score” value (subjects with PFIC; [6]) was 1.7 points. For the same compound, the “proportion of pruritus responders: proportion of assessments ≤1” value (subjects with PFIC; BSEP deficiency cohort, morning and evening, FIG. 16A) was “over 0.6”, the “difference … morning ItchRO[Obs] score” value (subjects with PFIC; FIC1 (PFIC 1) cohort, FIG. 9A) was 1.136 point and the “reduction from baseline in pruritus morning ItchRO[Obs] score” value (subjects with PFIC; FIC1 (PFIC 1) cohort, FIG. 9A) was 1.4 points. The “improvements in pruritus (weekly ItchRO(Obs) score)” value (subjects with PFIC; FIC1, MDR3, TJP2, MYO5B cohorts, FIG. 33A-B) was “statistically significant and clinically meaningful improvements”, the “difference … morning ItchRO[Obs] score” value (subjects with PFIC; MDR3 (PFIC 3) cohort, FIG. 9B) was 0.594 point and the “reduction from baseline in pruritus morning ItchRO[Obs] score” value (subjects with PFIC; MDR3 (PFIC 3) cohort, FIG. 9B) was 1.8 points. For the same compound, the “difference vs placebo in proportion of pruritus responders (assessments ≤1)” value (subjects with PFIC; PFIC cohort, Baseline to Week 26, FIG. 16B, 27B) was 0.345, the “difference vs placebo in proportion of pruritus responders (assessments ≤1 or decrease ≥1)” value (subjects with PFIC; PFIC cohort, FIG. 17B) was 0.380 and the “proportion of pruritus responders: proportion of assessments ≤1 or decrease ≥1” value (subjects with PFIC; PFIC cohort, FIG. 17B) was “over 0.7”. The response to treatment (subjects with PFIC; PFIC patients post surgery (full population)) was “significant response”, the “improvements in pruritus severity” value (subjects with PFIC; full-study population, FIG. 35A) was “statistically significant and clinically meaningful improvements” and the improvements in pruritus (subjects with PFIC; patients with no-variant found, FIG. 35C) was “demonstrated improvements”. For the same compound, the “pruritus change in individual t-BSEP patients (morning ItchRO(Obs))” value (subjects with PFIC; t-BSEP (truncated PFIC2) patients, Baseline to Week 26, FIG. 41D) was “limited improvement in pruritus”, the “sBA change in individual t-BSEP patients” value ([1]; Baseline to Week 26, FIG. 42D) was “reductions from Baseline to Week 26 in sBA” and the “sBA reduction in individual t-BSEP patients” value ([1]; all patients receiving maralixibat (MRX-MRX) or switching from placebo (PBO-MRX), Table 15) was “meaningful sBA reduction”. For the same compound, the “Any TEAE, %” value (patients with PFIC; MRX-MRX (n = 47)) was “(1M)”, the “Most common TEAE: diarrhoea, %” value (patients with PFIC; MRX-MRX (n = 47)) was “(63.8) %” and the “Serious TEAE, %” value (patients with PFIC; MRX-MRX (n = 47)) was “(17.0) %”. For the same compound, the “Severe TEAE, %” value (patients with PFIC; MRX-MRX (n = 47)) was “(10.6) %”, the “TEAE leading to death, %” value (patients with PFIC; MRX-MRX (n = 47)) was “(2.1) %” and the “TEAE leading to discontinuation, %” value (patients with PFIC; MRX-MRX (n = 47)) was “(6.4) %”. The “Any TEAE, %” value (patients with PFIC; PBO-MRX (n = 38)) was “(92.1) %”, the “Most common TEAE: diarrhoea, %” value (patients with PFIC; PBO-MRX (n = 38)) was “(34.2) %” and the “Serious TEAE, %” value (patients with PFIC; PBO-MRX (n = 38)) was “(15.0) %”. For the same compound, the “Severe TEAE, %” value (patients with PFIC; PBO-MRX (n = 38)) was “(5.3) %”, the “early onset of diarrhea (most frequent TEAE)” value (patients with PFIC; overall) was 51% and the new safety signals (patients with PFIC; overall) was “no new safety signals”.
